Patent US5151517A, “Derivatives of tetrahydro-2,3,6,7,1H,5H,11H-(1)benzopyrano(6,7,8,i,j)quinolizinone-11 usable as markers for organic compounds, particularly biological compounds with a view to their detection by chemiluminescence or fluorescence” (Laboratories Eurobio, priority 1989, dated 1992)

Columns and labels:
[1] = Hydrosolubility of a dried aliquot of luminarine-7; type: physicochemical; conditions: dried aliquot portion
Description: (§1) Stirring takes place for 2 hours and then the dicyclohexylurea formed is filtered. The remaining product, luminarine-7, is kept in solution in dimethyl formamide.

[2] = Storage stability of luminarine-7 in dimethyl formamide solution; type: physicochemical; conditions: -20° C., in the presence of P2O5
Description: as §1

[3] = Absorbance measurements (molecular extinction coefficient); type: physicochemical; conditions: acetone/ethyl acetate 75:25, 10^-6 mole/l coumarin
Description: (§2) The absorbance measurements were carried out with a Jobin Yvon JY3 spectrophotometer. The chemiluminescence measurements were obtained by using a Jobin Yvon JY4 spectrofluorimeter with 10 nm slit widths. The cell for the liquid samples is a 10×10 mm quart cell with a capacity of 3 ml and filled with 2 ml of solution, which corresponds to a real solution volume exposed to the photomultiplier of 1.35 ml.
(§3) Fluorescence and Absorbance Measurements
(§4) These measurements were carried out at 20^+ 2° C. and the quantum efficiencies of fluorescence RF of coumarins-1, 311 and 102 were determined compared with quinine disulphate, whose fluorescence quantum efficiency is 0.546 using the Parker method described in Analyst, 85, 1960, p. 587 using a 2 mg/l quinine disulphate solution in 0.1N H2 SO4.
(§5) For the coumarins, use was made of a solution of acetone and ethyl acetate in a volume ratio of 75:25 with a 10^-6 mole/l coumarin concentration ensuring in each case an absorbance below 0.05.

[4] = Chemiluminescence measurements with DNPO (printed DMPO in table 2) and H2O2; type: physicochemical; conditions: DMPO = bis(dinitro-2,4 phenyl)oxalate; for RC = chemiluminescence quantum efficiency: 10^-3 mole/l coumarin; for RE = excitation efficiency: RC = Rex × RF
Description: as §2
(§6) In order to determine the chemiluminescence quantum efficiencies Rc, the intensity was estimated as a function of time at the emission maximum. When the intensity decrease is relatively low, the emission spectrum is plotted and then the intensity is followed as a function of time until it has dropped to 2% of the maximum intensity.
(§7) The other luminescence parameters are measured directly. These consist of the maximum intensity (lmax), the time for reaching the maximum intensity (Tmax) and the time for reaching half the maximum intensity following the maximum time (T1/2).
(§8) The chemi luminescence efficiency Rc is calculated by the Rauhut method described in J. Am. Chem. Soc., 88, 15, 1966, p.3604.
(§9) The excitation efficiency Rex is determined on the basis of the formula: […]
(§10) For chemiluminescence measurements with TCPO, to 1 ml of the solution containing 10^-3 mole/l of coumarin are added 0.5 ml of a 2·10^-3 mole/l TCPO solution in ethyl acetate, 0.5 ml of a 2·10^-2 mole/l H2 O2 solution in acetone and 10 μl of a 0.1 mole/l imidazole nitrate buffer at pH 7.5. When DNPO is used, to the same solution of coumarin in acetone are added 0.5 ml of a 10^-3 mole/l DNPO solution in ethyl acetate and 0.5 ml of a 10^-2 mole/l H2 O2 solution in acetone.

[5] = Chemiluminescence measurements with TCPO and H2O2; type: physicochemical; conditions: TCPO = bis(trichloro-2,4,6 phenyl) oxalate; for RC = chemiluminescence quantum efficiency: 10^-3 mole/l coumarin, imidazole nitrate buffer pH 7.5; for RE = excitation efficiency: RC = Rex × RF
Description: as §2, §6, §7, §8, §9, §10

[6] = Fluorescence measurements (quantum efficiency vs quinine disulphate, sensitivity); type: physicochemical; conditions: for S = fluorescence sensitivity: acetone/ethyl acetate 75:25; for RF = fluorescence quantum efficiency: acetone/ethyl acetate 75:25, 10^-6 mole/l coumarin, 20 ± 2° C., vs quinine disulphate
Description: The fluorescence measurements are carried out with a Perkin Elmer LS5 spectrifluorometer with 2 nm slit widths for two monochromators.
as §3, §4, §5

[7] = reference standard; 2 mg/l in 0.1N H2SO4; cited from earlier work
[8] = Chemiluminescence as a function of the pH of the solution; type: physicochemical
Description: as §2, §6, §7, §8, §10
Table 4 gives the variations of the chemiluminescence efficiency, lmax, Tmax and T1/2, as a function of the pH of the solution. […] However, the values for Tmax and T1/2 decrease when the pH increases beyond 5.

[9] = Comparison of fluorescence, absorbance and chemiluminescence properties of coumarin nuclei; type: physicochemical; conditions: compared with coumarine-1 and coumarine-311, tables 1 and 2
Description: The fluorescence measurements are carried out with a Perkin Elmer LS5 spectrifluorometer with 2 nm slit widths for two monochromators. The absorbance measurements were carried out with a Jobin Yvon JY3 spectrophotometer. The chemiluminescence measurements were obtained by using a Jobin Yvon JY4 spectrofluorimeter with 10 nm slit widths. The cell for the liquid samples is a 10×10 mm quart cell with a capacity of 3 ml and filled with 2 ml of solution, which corresponds to a real solution volume exposed to the photomultiplier of 1.35 ml. […] For the coumarins, use was made of a solution of acetone and ethyl acetate in a volume ratio of 75:25 with a 10^-6 mole/l coumarin concentration ensuring in each case an absorbance below 0.05. […] When DNPO is used, to the same solution of coumarin in acetone are added 0.5 ml of a 10^-3 mole/l DNPO solution in ethyl acetate and 0.5 ml of a 10^-2 mole/l H2 O2 solution in acetone.

[10] = Chemiluminescence with TCPO and H2O2 as a function of the coumarin-102 concentration; type: physicochemical; conditions: for Imax (maximum intensity) / RC × 10^4 (chemiluminescence efficiency) / T1/2 (time for reaching half the maximum intensity following the maximum time) / Tmax (time for reaching the maximum intensity): TCPO and H2O2
Description: The absorbance measurements were carried out with a Jobin Yvon JY3 spectrophotometer. The chemiluminescence measurements were obtained by using a Jobin Yvon JY4 spectrofluorimeter with 10 nm slit widths. The cell for the liquid samples is a 10×10 mm quart cell with a capacity of 3 ml and filled with 2 ml of solution, which corresponds to a real solution volume exposed to the photomultiplier of 1.35 ml. In order to determine the chemiluminescence quantum efficiencies Rc, the intensity was estimated as a function of time at the emission maximum. […] The other luminescence parameters are measured directly. These consist of the maximum intensity (lmax), the time for reaching the maximum intensity (Tmax) and the time for reaching half the maximum intensity following the maximum time (T1/2). The chemi luminescence efficiency Rc is calculated by the Rauhut method described in J. Am. Chem. […] When DNPO is used, to the same solution of coumarin in acetone are added 0.5 ml of a 10^-3 mole/l DNPO solution in ethyl acetate and 0.5 ml of a 10^-2 mole/l H2 O2 solution in acetone.

O=C(CCC(=O)ON1C(=O)CCC1=O)NCCOCCOCCOCCOCCOCCNC(=O)Cc1cc(=O)oc2c3c4c(cc12)CCCN4CCC3 [luminarine-7]
hydrosolubility [1]: total hydrosolubility | storage stability [2]: several months at -20 °C without any deterioration

CCN(CC)c1ccc2c(C)cc(=O)oc2c1 [COUMARINE-1, dimethylamino-7 methyl-4 coumarin]
ε = molecular extinction coefficient, 365 nm [3]: 38 000 | RC = chemiluminescence quantum efficiency [4]: 0.18 10^2 E · mole^-1 | RE = excitation efficiency [4]: 0.33 10^2 | RC = chemiluminescence quantum efficiency [5]: 0.37 10^2 E · mole^-1 | RE = excitation efficiency [5]: 0.67 10^2 | S = fluorescence sensitivity [6]: 57 10^3 | RF = fluorescence quantum efficiency [6]: 0.55

C=CC1CN2CCC1CC2C(O)c1ccnc2ccc(OC)cc12 (stereo not drawn) [quinine disulphate]
fluorescence quantum efficiency [7]: 0.546

Cc1cc(=O)oc2c3c4c(cc12)CCCN4CCC3 [COUMARINE-102, tetrahydro-2,3,5,6,7,1H,5H,11H-(1)-benzopyrano(6,7,8-ij)methyl-9 quinolizinone-11]
ε = molecular extinction coefficient, 365 nm [3]: 23000 M⁻¹ cm⁻¹ | Imax (maximum intensity) ([8]; pH 4): 24 A.U. | RC × 10^4 (chemiluminescence efficiency) ([8]; pH 4): 1.52 E · mole^-1 | T1/2 (time for reaching half the maximum intensity following the maximum time) ([8]; pH 4): 300 s | Tmax (time for reaching the maximum intensity) ([8]; pH 4): 48 s | Imax (maximum intensity) ([8]; pH 5): 17 A.U. | RC × 10^4 (chemiluminescence efficiency) ([8]; pH 5): 1.58 E · mole^-1 | T1/2 (time for reaching half the maximum intensity following the maximum time) ([8]; pH 5): 360 s | Tmax (time for reaching the maximum intensity) ([8]; pH 5): 60 s | Imax (maximum intensity) ([8]; pH 6): 25 A.U. | RC × 10^4 (chemiluminescence efficiency) ([8]; pH 6): 2.34 E · mole^-1 | T1/2 (time for reaching half the maximum intensity following the maximum time) ([8]; pH 6): 336 s | Tmax (time for reaching the maximum intensity) ([8]; pH 6): 48 s | Imax (maximum intensity) ([8]; pH 7): 110 A.U. | RC × 10^4 (chemiluminescence efficiency) ([8]; pH 7): 2.23 E · mole^-1 | T1/2 (time for reaching half the maximum intensity following the maximum time) ([8]; pH 7): 108 s | Tmax (time for reaching the maximum intensity) ([8]; pH 7): 24 s | Imax (maximum intensity) ([8]; pH 8): 245 A.U. | RC × 10^4 (chemiluminescence efficiency) ([8]; pH 8): 1.60 E · mole^-1 | T1/2 (time for reaching half the maximum intensity following the maximum time) ([8]; pH 8): 24 s | Tmax (time for reaching the maximum intensity) ([8]; pH 8): 12 s | fluorescence, absorbance and chemiluminescence properties [9]: better fluorescence, absorbance and chemiluminescece properties | RC = chemiluminescence quantum efficiency [4]: 0.26 10^2 E · mole^-1 | RE = excitation efficiency [4]: 0.45 10^2 | RC = chemiluminescence quantum efficiency [5]: 0.37 10^2 E · mole^-1 | RE = excitation efficiency [5]: 0.65 10^2 | S = fluorescence sensitivity [6]: 36 10^3 | RF = fluorescence quantum efficiency [6]: 0.57 | Imax (maximum intensity) ([10]; (C102) 1.4 × 10^-3): 301 A.U. | RC × 10^4 (chemiluminescence efficiency) ([10]; (C102) 1.4 × 10^-3): 12.0 E · mole^-1 | T1/2 (time for reaching half the maximum intensity following the maximum time) ([10]; (C102) 1.4 × 10^-3): 6 s | Tmax (time for reaching the maximum intensity) ([10]; (C102) 1.4 × 10^-3): 12 s | Imax (maximum intensity) ([10]; (C102) 1.4 × 10^-6): 75 A.U. | RC × 10^4 (chemiluminescence efficiency) ([10]; (C102) 1.4 × 10^-6): 4.14 E · mole^-1 | T1/2 (time for reaching half the maximum intensity following the maximum time) ([10]; (C102) 1.4 × 10^-6): 9 s | Tmax (time for reaching the maximum intensity) ([10]; (C102) 1.4 × 10^-6): 12 s | Imax (maximum intensity) ([10]; (C102) 1.4 × 10^-7): 31 A.U. | RC × 10^4 (chemiluminescence efficiency) ([10]; (C102) 1.4 × 10^-7): 2.31 E · mole^-1 | T1/2 (time for reaching half the maximum intensity following the maximum time) ([10]; (C102) 1.4 × 10^-7): 7.2 s | Tmax (time for reaching the maximum intensity) ([10]; (C102) 1.4 × 10^-7): 12 s | Imax (maximum intensity) ([10]; (C102) 1.4 × 10^-8): 3.2 A.U. | RC × 10^4 (chemiluminescence efficiency) ([10]; (C102) 1.4 × 10^-8): 0.40 E · mole^-1 | T1/2 (time for reaching half the maximum intensity following the maximum time) ([10]; (C102) 1.4 × 10^-8): 6 s | Tmax (time for reaching the maximum intensity) ([10]; (C102) 1.4 × 10^-8): 12 s | Imax (maximum intensity) ([10]; (C102) 1.4 × 10^-9): 0.3 A.U. | RC × 10^4 (chemiluminescence efficiency) ([10]; (C102) 1.4 × 10^-9): 0.20 E · mole^-1 | T1/2 (time for reaching half the maximum intensity following the maximum time) ([10]; (C102) 1.4 × 10^-9): 4.8 s | Tmax (time for reaching the maximum intensity) ([10]; (C102) 1.4 × 10^-9): 12 s | chemiluminescence efficiency as a function of concentration ([10]; TCPO and H2O2, table 3): chemiluminescence efficiency increases with the coumar in-102 concentration

Cc1cc(=O)oc2cc(N(C)C)ccc12 [COUMARINE-311, dimethylamino-7 methyl-4 coumarin]
ε = molecular extinction coefficient, 365 nm [3]: 26900 M⁻¹ cm⁻¹ | RC = chemiluminescence quantum efficiency [4]: 0.13 10^2 E · mole^-1 | RE = excitation efficiency [4]: 0.24 10^2 | RC = chemiluminescence quantum efficiency [5]: 0.17 10^2 E · mole^-1 | RE = excitation efficiency [5]: 0.32 10^2 | S = fluorescence sensitivity [6]: 40 10^3 | RF = fluorescence quantum efficiency [6]: 0.52
